# In patent publication US11702422B2, “Imidazopyridazines as modulators of IL-17” (Janssen Pharmaceutica NV, priority 2020, dated 2023):
# Tests used:
# [1] = tested on: IL-17A-induced G-CSF production in human normal keratinocyte (NHK); assay: NHK Assay: IL-17A-induced G-CSF production in human normal keratinocytes; format: cell-based; conditions: Homo sapiens, Keratinocyte, 24 h, adult normal human keratinocytes, IL-17A 5 ng/mL, simple average if tested more than once
# Method in brief: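 HTRF read-out of supernatant G-CSF, quantified from a standard curve, gave IC50 values. Adult keratinocytes, 3000-4000 cells/well, received human IL-17A (5 ng/mL final) pre-mixed 1 h at rt with compound, in 5% FBS and 0.2% DMSO, 24 h at 37° C.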
# [2] = biological target: IL-17A(FLAG-Tagged): IL-17RA(His-Tagged) (Homo sapiens, UniProt Q16552, K93Q); assay: IL-17A(FLAG-Tagged): IL-17RA(His-Tagged) Binding Disruption Eu-HTRF Assay; conditions: IL-17A/IL-17RA binding disruption, simple average if tested more than once
# Method in brief: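 IC50 comes from a one-site competition fit of the HTRF 665/620 nm ratio. Compound dilutions (2-fold, 22 points) were held 1 h rt with FLAG-tagged IL-17A dimer, then His-tagged IL-17RA plus Eu-cryptate anti-FLAG and D2 anti-His antibodies were added for 2 h rt.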
# Sequence of UniProt Q16552 (Q16552 with tags, fused parts or gaps K93Q): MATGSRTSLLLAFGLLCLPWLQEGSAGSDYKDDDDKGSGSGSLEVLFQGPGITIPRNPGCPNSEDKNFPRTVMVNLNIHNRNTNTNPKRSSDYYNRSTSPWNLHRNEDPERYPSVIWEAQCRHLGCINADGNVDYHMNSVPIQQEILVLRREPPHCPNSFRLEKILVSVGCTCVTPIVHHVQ
IC50 [2] [nM],Compound,IC50 [1] [nM]
920,"COc1cc(C(=O)N[C@H](c2cn3ncc([C@H](NC(=O)CCC(F)(F)F)C4CC4)cc3n2)C2CCC(F)(F)CC2)ncn1 [Example 465, N—((S)-(7-((R)-Cyclopropyl(4,4,4-trifluorobutanamido)methyl)imidazo[1,2-b]pyridazin-2-yl)(4,4-difluorocyclohexyl)methyl)-6-methoxypyrimidine-4-carboxamide]",1600
750,"Cn1nnnc1C(=O)N[C@H](c1cn2ncc([C@H](NC(=O)CCC(F)(F)F)C3CC3)cc2n1)C1CCC(F)(F)CC1 [Example 468, N—((S)-(7-((R)-Cyclopropyl(4,4,4-trifluorobutanamido)methyl)imidazo[1,2-b]pyridazin-2-yl)(4,4-difluorocyclohexyl)methyl)-1-methyl-1H-tetrazole-5-carboxamide]",1700
1200,"Cn1ccnc1C(=O)N[C@H](c1cn2ncc([C@H](NC(=O)CCC(F)(F)F)C3CC3)cc2n1)C1CCC(F)(F)CC1 [Example 469, N—((S)-(7-((R)-Cyclopropyl(4,4,4-trifluorobutanamido)methyl)imidazo[1,2-b]pyridazin-2-yl)(4,4-difluorocyclohexyl)methyl)-1-methyl-1H-imidazole-2-carboxamide]",> 20000
54,"CCc1cnoc1C(=O)N[C@H](c1cn2ncc([C@H](NC(=O)CCC(F)(F)F)C3CC3)cc2n1)C1CCC(F)(F)CC1 [Example 470, N—((S)-(7-((R)-Cyclopropyl(4,4,4-trifluorobutanamido)methyl)imidazo[1,2-b]pyridazin-2-yl)(4,4-difluorocyclohexyl)methyl)-4-ethylisoxazole-5-carboxamide]",110
380,"Cc1ncoc1C(=O)N[C@H](c1cn2ncc([C@H](NC(=O)CCC(F)(F)F)C3CC3)cc2n1)C1CCC(F)(F)CC1 [Example 471, N—((S)-(7-((R)-Cyclopropyl(4,4,4-trifluorobutanamido)methyl)imidazo[1,2-b]pyridazin-2-yl)(4,4-difluorocyclohexyl)methyl)-4-methyloxazole-5-carboxamide]",2300
45000,"Cc1nc(C)c(C(=O)N[C@H](c2cn3ncc([C@H](NC(=O)CCC(F)(F)F)C4CC4)cc3n2)C2CCC(F)(F)CC2)o1 [Example 472, N—((S)-(7-((R)-Cyclopropyl(4,4,4-trifluorobutanamido)methyl)imidazo[1,2-b]pyridazin-2-yl)(4,4-difluorocyclohexyl)methyl)-2,4-dimethyloxazole-5-carboxamide]",> 20000
8500,"Cc1noc(C(=O)N[C@H](c2cn3ncc([C@H](NC(=O)CCC(F)(F)F)C4CC4)cc3n2)C2CCC(F)(F)CC2)c1C [Example 473, N—((S)-(7-((R)-Cyclopropyl(4,4,4-trifluorobutanamido)methyl)imidazo[1,2-b]pyridazin-2-yl)(4,4-difluorocyclohexyl)methyl)-3,4-dimethylisoxazole-5-carboxamide]",> 20000
41,"O=C(CCC(F)(F)F)N[C@@H](c1cnn2cc([C@@H](NC(=O)c3conc3C3CCC3)C3CCC(F)(F)CC3)nc2c1)C1CC1 [Example 474, 3-Cyclobutyl-N—((S)-(7-((R)-cyclopropyl(4,4,4-trifluorobutanamido)methyl)imidazo[1,2-b]pyridazin-2-yl)(4,4-difluorocyclohexyl)methyl)isoxazole-4-carboxamide]",130
130,"O=C(CCC(F)(F)F)NC(c1cnn2cc(C(NC(=O)c3ncnn3CC3CC3(F)F)C3CCC(F)(F)CC3)nc2c1)C1CC1 [Example 475, N—((R)-(7-((S)-Cyclopropyl(4,4,4-trifluorobutanamido)methyl)imidazo[1,2-b]pyridazin-2-yl)(4,4-difluorocyclohexyl)methyl)-1-((2,2-difluorocyclopropyl)methyl)-1H-1,2,4-triazole-5-carboxamide]",330
130,"CC(F)(F)CCn1ncnc1C(=O)N[C@H](c1cn2ncc([C@H](NC(=O)CCC(F)(F)F)C3CC3)cc2n1)C1CCC(F)(F)CC1 [Example 476, N—((S)-(7-((R)-Cyclopropyl(4,4,4-trifluorobutanamido)methyl)imidazo[1,2-b]pyridazin-2-yl)(4,4-difluorocyclohexyl)methyl)-1-(3,3-difluorobutyl)-1H-1,2,4-triazole-5-carboxamide]",390
290,"CC(F)(F)Cn1ncnc1C(=O)N[C@H](c1cn2ncc([C@H](NC(=O)CCC(F)(F)F)C3CC3)cc2n1)C1CCC(F)(F)CC1 [Example 477, N—((S)-(7-((R)-Cyclopropyl(4,4,4-trifluorobutanamido)methyl)imidazo[1,2-b]pyridazin-2-yl)(4,4-difluorocyclohexyl)methyl)-1-(2,2-difluoropropyl)-1H-1,2,4-triazole-5-carboxamide]",1400

# The next lines start with the compound.
Compound,IC50 [2] [nM],IC50 [1] [nM]
"CCc1ccnc(C(=O)N[C@H](c2cn3ncc([C@H](NC(=O)CCC(F)(F)F)C4CC4)cc3n2)C2CCC(F)(F)CC2)c1 [Example 453, N—((S)-(7-((R)-Cyclopropyl(4,4,4-trifluorobutanamido)methyl)imidazo[1,2-b]pyridazin-2-yl)(4,4-difluorocyclohexyl)methyl)-4-ethylpicolinamide]",150,3900
"Cc1cncc(C(=O)N[C@H](c2cn3ncc([C@H](NC(=O)CCC(F)(F)F)C4CC4)cc3n2)C2CCC(F)(F)CC2)c1 [Example 454, N—((S)-(7-((R)-Cyclopropyl(4,4,4-trifluorobutanamido)methyl)imidazo[1,2-b]pyridazin-2-yl)(4,4-difluorocyclohexyl)methyl)-5-methylnicotinamide]",320,3400
"O=C(CCC(F)(F)F)N[C@@H](c1cnn2cc([C@@H](NC(=O)c3cncc(C(F)F)c3)C3CCC(F)(F)CC3)nc2c1)C1CC1 [Example 455, N—((S)-(7-((R)-Cyclopropyl(4,4,4-trifluorobutanamido)methyl)imidazo[1,2-b]pyridazin-2-yl)(4,4-difluorocyclohexyl)methyl)-5-(difluoromethyl)nicotinamide]",130,850
"O=C(CCC(F)(F)F)N[C@@H](c1cnn2cc([C@@H](NC(=O)c3ccccn3)C3CCC(F)(F)CC3)nc2c1)C1CC1 [Example 456, N—((S)-(7-((R)-Cyclopropyl(4,4,4-trifluorobutanamido)methyl)imidazo[1,2-b]pyridazin-2-yl)(4,4-difluorocyclohexyl)methyl)picolinamide]",780,> 20000
"O=C(CCC(F)(F)F)N[C@@H](c1cnn2cc([C@@H](NC(=O)c3ccnnc3)C3CCC(F)(F)CC3)nc2c1)C1CC1 [Example 457, N—((S)-(7-((R)-Cyclopropyl(4,4,4-trifluorobutanamido)methyl)imidazo[1,2-b]pyridazin-2-yl)(4,4-difluorocyclohexyl)methyl)pyridazine-4-carboxamide]",1200,2900
"O=C(CCC(F)(F)F)N[C@@H](c1cnn2cc([C@@H](NC(=O)c3cccnn3)C3CCC(F)(F)CC3)nc2c1)C1CC1 [Example 458, N—((S)-(7-((R)-Cyclopropyl(4,4,4-trifluorobutanamido)methyl)imidazo[1,2-b]pyridazin-2-yl)(4,4-difluorocyclohexyl)methyl)pyridazine-3-carboxamide]",7800,> 20000
"COc1cc(C(=O)N[C@H](c2cn3ncc([C@H](NC(=O)CCC(F)(F)F)C4CC4)cc3n2)C2CCC(F)(F)CC2)cnn1 [Example 459, N—((S)-(7-((R)-Cyclopropyl(4,4,4-trifluorobutanamido)methyl)imidazo[1,2-b]pyridazin-2-yl)(4,4-difluorocyclohexyl)methyl)-6-methoxypyridazine-4-carboxamide]",1300,> 20000
"O=C(CCC(F)(F)F)N[C@@H](c1cnn2cc([C@@H](NC(=O)c3cc(C4CC4)ccn3)C3CCC(F)(F)CC3)nc2c1)C1CC1 [Example 460, 4-Cyclopropyl-N—((S)-(7-((R)-cyclopropyl(4,4,4-trifluorobutanamido)methyl)imidazo[1,2-b]pyridazin-2-yl)(4,4-difluorocyclohexyl)methyl)picolinamide]",110,1100
"N#Cc1ccnc(C(=O)N[C@H](c2cn3ncc([C@H](NC(=O)CCC(F)(F)F)C4CC4)cc3n2)C2CCC(F)(F)CC2)c1 [Example 461, 4-Cyano-N—((S)-(7-((R)-cyclopropyl(4,4,4-trifluorobutanamido)methyl)imidazo[1,2-b]pyridazin-2-yl)(4,4-difluorocyclohexyl)methyl)picolinamide]",1600,> 20000
"COCc1cncc(C(=O)N[C@H](c2cn3ncc([C@H](NC(=O)CCC(F)(F)F)C4CC4)cc3n2)C2CCC(F)(F)CC2)c1 [Example 462, N—((S)-(7-((R)-Cyclopropyl(4,4,4-trifluorobutanamido)methyl)imidazo[1,2-b]pyridazin-2-yl)(4,4-difluorocyclohexyl)methyl)-5-(methoxymethyl)nicotinamide]",140,1100
"CC(C)c1ccsc1C(=O)N[C@H](c1cn2ncc([C@H](NC(=O)CCC(F)(F)F)C3CC3)cc2n1)C1CCC(F)(F)CC1 [Example 463, N—((S)-(7-((R)-Cyclopropyl(4,4,4-trifluorobutanamido)methyl)imidazo[1,2-b]pyridazin-2-yl)(4,4-difluorocyclohexyl)methyl)-3-isopropylthiophene-2-carboxamide]",94,380
